The test system of data set [1] is RAW 264.7 cells. As to the kind of experiment: MTT cell viability. The class given is cell-based, murine. The conditions noted are these: 24 h, 5–200 μM tested. Here is the method:
(§1) RAW 264.7 cells were cultured in DMEM containing 10% FBS and maintained in a humidified incubator set at 37 °C with 5% CO2. For all following assays, cells were subcultured at a density of 40 000 cells per well in 96 well culture plates with 200 μL of the above-described culture medium. After 24 h, cells were incubated with ORV, GN, and their glucuronide metabolites (5–200 μM) in RPMI medium supplemented with glutamine (4 mM) in the presence or absence of LPS (0.1 μg/mL) (200 μL final volume per well). For MTT, NO, ROS, IL-1β, and TNF-α (n = 4), each experiment was performed in triplicate separately.
The MTT colorimetric assay was performed to assess the cell viability of cells after being treated with ORV, GN, and their glucuronide metabolites. After 24 h of treatment, RAW 264.7 cells were incubated with 0.5 mg/mL MTT during 3 h at 37 °C. The formazan crystals formed were dissolved with 100 μL of dimethyl sulfoxide (DMSO), and the plate was then incubated in the darkness for 30 min. Finally, the absorbance was measured at 595 nm using a microplate reader (FLUOstar Optima, BMG Labtech).

In data set [2] the test system is NO production in LPS-stimulated RAW 264.7 cells. Briefly: NO measurement (Griess) in LPS-stimulated macrophages. It is filed as cell-based, murine. As to conditions: between 25 and 50 μM (summary statement). Here is the method:
as §1
After 24 h of treatment of RAW 264.7 cells with ORV, GN, and their glucuronide metabolites, 70 μL of supernatant was mixed with 70 μL of Griess solution. After 15 min in darkness, the absorbance was measured at 550 nm using a microplate reader (FLUOstar Optima, BMG Labtech). A calibration curve of NO2 (0–100 μM) was used for quantification. Data were expressed as NO production (μM) compared to cells treated only with LPS (positive control).

In data set [3] the test system is ROS production in LPS-stimulated RAW 264.7 cells. As to the kind of experiment: Intracellular ROS measurement (DCFH2-DA) in LPS-stimulated macrophages. It is filed as cell-based, murine. Here is the method:
as §1
Generation of intracellular ROS in cells was analyzed using the fluorometric probe DCFH2-DA. After 24 h of treatment with GN, ORV, and their glucuronide metabolites, cells were washed with phosphate-buffered saline (PBS) and then 150 μL of DCFH2-DA (10 μM) was added. After 30 min at 37 °C, the fluorescence intensity was quantified using a microplate reader (FLUOstar Optima, BMG Labtech) with a wavelength of excitation and emission of 485 and 520 nm, respectively. All experiments were performed in darkness. Results were expressed as ROS production (fluorescence intensity expressed as arbitrary units) compared to cells treated only with LPS (positive control).

Data set [4] deals with IL-1β production in LPS-stimulated RAW 264.7 cells. Briefly: IL-1β production (ELISA) in LPS-stimulated macrophages. As to conditions: t-GN 10 and 50 μM, its glucuronides 50 and 200 μM, 24 h. The class given is cell-based, murine. The procedure: as §1
(§2) At 24 h after seeding, RAW 264.7 cells were exposed to LPS (0.1 μg/mL) in the absence or presence of ORV, GN (10 and 50 μM), and their metabolites (50 and 200 μM). After 24 h of exposure, IL-1β and TNF-α concentrations were measured in culture media supernatants by ELISA sandwich assay following the instructions of the manufacturer.

For data set [5], the system named is TNF-α production in LPS-stimulated RAW 264.7 cells. As to the kind of experiment: TNF-α production (ELISA) in LPS-stimulated macrophages. The conditions noted are these: t-GN 10 and 50 μM, its glucuronides 50 and 200 μM, 24 h. The class given is cell-based, murine. Here is the method: as §1, §2
On the set-up of data set [6]: method as in PMID 25939395. As to conditions: rats, intravenous and oral administration ref 2; cited from earlier work.
The test system of data set [7] is BV-2 microglial cells. Also noted: method as in PMID 23807809. The conditions noted are these: 5 and 10 μM, BV-2 microglial cells ref 36; cited from earlier work.

As for `Oc1cc(O)cc(/C=C/c2c(O)cccc2O)c1` [t-GN, trans-2′,3,5,6′-tetrahydroxystilbene], in data set [1], the “concentration from which toxic (MTT)” value was at least 100 µM. Besides, the “decrease of NO production” value in data set [2] is given as “more than 50%”. In addition, the “counteracting ROS production” value in data set [3] (GN, concentration not stated (5–50 μM tested), 24 h, LPS) was “more than 55%”. In data set [3] (between 25 and 50 μM (summary statement)), the “decrease of ROS production” value is reported as “more than 50%”. In addition, in data set [4], the “reduction of IL-1β” value is “ineffective”. The “reduction of TNF-α” value in data set [5] is on record as “ineffective”. Besides, the calculated bioavailability in data set [6] was 6.6%. In data set [7], the cytotoxic effect result is “no cytotoxic effect”.
